# Assay results reported in US10105372B2, “Methods of treating obesity using antioxidant inflammation modulators” (REATA PHARMACEUTICALS, INC., priority 2010, dated 2018).
# Legend:
# [1] = Phase 2b/3 trial, weight over 52 weeks; format: in vivo, human
# Description: Weight measurements were included in the study as a basic clinical parameter. […] Screening estimated GFR was calculated as the mean of two estimated GFR results (differing no more than 25%) collected at least 5 days apart within a 3-week period. […] Exclusion criteria included type 1 diabetes, non-diabetic kidney disease, hemoglobin A1c>10%, QTc […] interval >450 milliseconds, evidence of hepatic dysfunction, and recent cardiovascular disease. […] Study drug was taken orally once daily in the morning one hour prior to food intake. Dose titration occurred as follows: (1) placebo; (2) 25 mg; (3) 25 mg, increased to 75 mg after 4 weeks; and (4) 25 mg, increased to 75 mg after 4 weeks, further increased to 150 mg after an additional 4 weeks. Randomization was stratified by CKD stage (3b versus 4), urinary albumin to creatinine ratio (ACR; ≤ versus >300 mg/g), and glucose control (hemoglobin A1c< versus ≥7%). An independent Data Safety Monitoring Board monitored patient safety. […] The double-blinded structure of the study was maintained throughout the 52-week period. […] Treatment was discontinued in all groups at week 52 (including the placebo group), and final clinical and laboratory measurements were taken at week 56.
# [2] = Phase 2b/3 trial, estimated GFR and CKD stage; format: in vivo, human; details: for patients with improvement in CKD stage: Stage 4 to 3b or 3b to 3a; for Change from baseline eGFR, mean ± SE: longitudinal model
# Description: Weight measurements were included in the study as a basic clinical parameter. […] Screening estimated GFR was calculated as the mean of two estimated GFR results (differing no more than 25%) collected at least 5 days apart within a 3-week period. […] Exclusion criteria included type 1 diabetes, non-diabetic kidney disease, hemoglobin A1c>10%, QTc […] interval >450 milliseconds, evidence of hepatic dysfunction, and recent cardiovascular disease. […] Study drug was taken orally once daily in the morning one hour prior to food intake. Dose titration occurred as follows: (1) placebo; (2) 25 mg; (3) 25 mg, increased to 75 mg after 4 weeks; and (4) 25 mg, increased to 75 mg after 4 weeks, further increased to 150 mg after an additional 4 weeks. Randomization was stratified by CKD stage (3b versus 4), urinary albumin to creatinine ratio (ACR; ≤ versus >300 mg/g), and glucose control (hemoglobin A1c< versus ≥7%). An independent Data Safety Monitoring Board monitored patient safety. Estimated GFR and routine safety laboratory testing was done at screening and every four weeks thereafter using a central laboratory. Adverse events and clinical laboratory parameters were assessed at each visit. Analysis of the primary outcome, change from baseline estimated GFR at Week 24, occurred after all randomized patients completed Week 24 or previously discontinued study. Exploratory outcomes included change from baseline at Week 24 in serum creatinine, blood urea nitrogen, serum phosphorus, uric acid, ACR, hemoglobin A1c, and intact parathyroid hormone.
# [3] = 75 mg, Week 56 (treatment discontinued at week 52)
# [4] = by week 52, patients treated with bardoxolone methyl
# [5] = Week 24, all bardoxolone methyl patients
smiles,measurement,setting,value
COC(=O)[C@]12CCC(C)(C)C[C@H]1[C@H]1C(=O)C=C3[C@@]4(C)C=C(C#N)C(=O)C(C)(C)[C@@H]4CC[C@@]3(C)[C@]1(C)CC2 [bardoxolone methyl],"Change in weight from baseline to Week 52: Decrease >5 kg, patients","[1]; 25 mg, N = 48",35 (73) n (%)
same,"Change in weight from baseline to Week 52: Decrease >10 kg, patients","[1]; 25 mg, N = 48",16 (33) n (%)
same,"Change in weight from baseline to Week 52: Decrease >15 kg, patients","[1]; 25 mg, N = 48",9 (19) n (%)
same,"Change in weight from baseline to Week 52: Decrease within 5 kg, patients","[1]; 25 mg, N = 48",8 (17) n (%)
same,"Change in weight from baseline to Week 52: Increase >5 kg, patients","[1]; 25 mg, N = 48",0 n (%)
same,"Change in weight from baseline to Week 52: Increase within 5 kg, patients","[1]; 25 mg, N = 48",5 (10) n (%)
same,"Change from baseline weight, Mean","[1]; 25 mg, Week 4",-1.4 kg
same,"Change from baseline weight, Mean","[1]; 25 mg, Week 8",-2.7 kg
same,"Change from baseline weight, Mean","[1]; 25 mg, Week 12",-3.9 kg
same,"Change from baseline weight, Mean","[1]; 25 mg, Week 16",-4.3 kg
same,"Change from baseline weight, Mean","[1]; 25 mg, Week 20",-5.0 kg
same,"Change from baseline weight, Mean","[1]; 25 mg, Week 24",-5.9 kg
same,"Change from baseline weight, Mean","[1]; 25 mg, Week 28",-6.3 kg
same,"Change from baseline weight, Mean","[1]; 25 mg, Week 32",-6.7 kg
same,"Change from baseline weight, Mean","[1]; 25 mg, Week 36",-7.4 kg
same,"Change from baseline weight, Mean","[1]; 25 mg, Week 40",-7.9 kg
same,"Change from baseline weight, Mean","[1]; 25 mg, Week 44",-8.2 kg
same,"Change from baseline weight, Mean","[1]; 25 mg, Week 48",-8.8 kg
same,"Change from baseline weight, Mean","[1]; 25 mg, Week 52",-9.3 kg
same,"Change from baseline weight, Mean","[1]; 25 mg, Week 56 (treatment discontinued at week 52)",-7.7 kg
same,"Change in weight from baseline to Week 52: Decrease >5 kg, patients","[1]; 75 mg, N = 48",32 (67) n (%)
same,"Change in weight from baseline to Week 52: Decrease >10 kg, patients","[1]; 75 mg, N = 48",14 (29) n (%)
same,"Change in weight from baseline to Week 52: Decrease >15 kg, patients","[1]; 75 mg, N = 48",4 (8) n (%)
same,"Change in weight from baseline to Week 52: Decrease within 5 kg, patients","[1]; 75 mg, N = 48",12 (25) n (%)
same,"Change in weight from baseline to Week 52: Increase >5 kg, patients","[1]; 75 mg, N = 48",0 n (%)
same,"Change in weight from baseline to Week 52: Increase within 5 kg, patients","[1]; 75 mg, N = 48",4 (8) n (%)
same,"Change from baseline weight, Mean","[1]; 75 mg, Week 4",-1.4 kg
same,"Change from baseline weight, Mean","[1]; 75 mg, Week 8",-2.6 kg
same,"Change from baseline weight, Mean","[1]; 75 mg, Week 12",-3.4 kg
same,"Change from baseline weight, Mean","[1]; 75 mg, Week 16",-4.1 kg
same,"Weight, Mean","[1]; 75 mg, Week 16",91.7 kg
same,"Change from baseline weight, Mean","[1]; 75 mg, Week 20",-4.4 kg
same,"Weight, Mean","[1]; 75 mg, Week 20",92.0 kg
same,"Change from baseline weight, Mean","[1]; 75 mg, Week 24",-4.7 kg
same,"Weight, Mean","[1]; 75 mg, Week 24",91.7 kg
same,"Change from baseline weight, Mean","[1]; 75 mg, Week 28",-5.1 kg
same,"Weight, Mean","[1]; 75 mg, Week 28",91.8 kg
same,"Change from baseline weight, Mean","[1]; 75 mg, Week 32",-6.2 kg
same,"Weight, Mean","[1]; 75 mg, Week 32",91.6 kg
same,"Change from baseline weight, Mean","[1]; 75 mg, Week 36",-6.1 kg
same,"Weight, Mean","[1]; 75 mg, Week 36",91.0 kg
same,"Change from baseline weight, Mean","[1]; 75 mg, Week 40",-6.5 kg
same,"Weight, Mean","[1]; 75 mg, Week 40",90.6 kg
same,"Change from baseline weight, Mean","[1]; 75 mg, Week 44",-6.9 kg
same,"Weight, Mean","[1]; 75 mg, Week 44",90.8 kg
same,"Change from baseline weight, Mean","[1]; 75 mg, Week 48",-7.4 kg
same,"Weight, Mean","[1]; 75 mg, Week 48",90.4 kg
same,"Change from baseline weight, Mean","[1]; 75 mg, Week 52",-7.7 kg
same,"Weight, Mean","[1]; 75 mg, Week 52",90.0 kg
same,"Change from baseline weight, Mean",[1]; [3],-7.6 kg
same,"Weight, Mean",[1]; [3],90.7 kg
same,"Change in weight from baseline to Week 52: Decrease >5 kg, patients","[1]; 150 mg, N = 45",34 (76) n (%)
same,"Change in weight from baseline to Week 52: Decrease >10 kg, patients","[1]; 150 mg, N = 45",22 (49) n (%)
same,"Change in weight from baseline to Week 52: Decrease >15 kg, patients","[1]; 150 mg, N = 45",12 (27) n (%)
same,"Change in weight from baseline to Week 52: Decrease within 5 kg, patients","[1]; 150 mg, N = 45",8 (18) n (%)
same,"Change in weight from baseline to Week 52: Increase >5 kg, patients","[1]; 150 mg, N = 45",1 (2) n (%)
same,"Change in weight from baseline to Week 52: Increase within 5 kg, patients","[1]; 150 mg, N = 45",2 (4) n (%)
same,"Change from baseline weight, Mean","[1]; 150 mg, Week 4",-1.3 kg
same,"Change from baseline weight, Mean","[1]; 150 mg, Week 8",-2.1 kg
same,"Change from baseline weight, Mean","[1]; 150 mg, Week 12",-3.3 kg
same,"Change from baseline weight, Mean","[1]; 150 mg, Week 16",-3.9 kg
same,"Change from baseline weight, Mean","[1]; 150 mg, Week 20",-5.0 kg
same,"Change from baseline weight, Mean","[1]; 150 mg, Week 24",-5.8 kg
same,"Change from baseline weight, Mean","[1]; 150 mg, Week 28",-6.7 kg
same,"Change from baseline weight, Mean","[1]; 150 mg, Week 32",-7.2 kg
same,"Change from baseline weight, Mean","[1]; 150 mg, Week 36",-8.1 kg
same,"Change from baseline weight, Mean","[1]; 150 mg, Week 40",-8.7 kg
same,"Change from baseline weight, Mean","[1]; 150 mg, Week 44",-9.2 kg
same,"Change from baseline weight, Mean","[1]; 150 mg, Week 48",-10 kg
same,"Change from baseline weight, Mean","[1]; 150 mg, Week 52",-10 kg
same,"Change from baseline weight, Mean","[1]; 150 mg, Week 56 (treatment discontinued at week 52)",-9.6 kg
same,fraction of patients who had lost more than 5 kg,[1]; [4],at least two thirds
same,fraction of patients who had lost more than 10 kg,[1]; [4],Approximately one third
same,patients with improvement in CKD stage,[2]; 25 mg group,53%
same,patients with improvement in CKD stage,[2]; 75 mg group,69%
same,patients with improvement in CKD stage,[2]; 150 mg group,61%
same,"estimated GFR, mean increases compared to placebo","[2]; Week 24, 25 mg group",8.3±1.1 mL/min/1.73 m^2
same,"Change from baseline eGFR, difference between bardoxolone methyl and placebo, mean ± SE","[2]; Week 24, 25 mg vs placebo",8.2 ± 1.5 mL/min/1.73 m^2
same,"Change from baseline eGFR, mean ± SE","[2]; Week 24, 25 mg",8.3 ± 1.1 mL/min/1.73 m^2
same,"estimated GFR, mean increases compared to placebo","[2]; Week 24, 75 mg group",11.5±1.1 mL/min/1.73 m^2
same,"Change from baseline eGFR, difference between bardoxolone methyl and placebo, mean ± SE","[2]; Week 24, 75 mg vs placebo",11.4 ± 1.5 mL/min/1.73 m^2
same,"Change from baseline eGFR, mean ± SE","[2]; Week 24, 75 mg",11.5 ± 1.1 mL/min/1.73 m^2
same,"estimated GFR, mean increases compared to placebo","[2]; Week 24, 150 mg group",10.6±1.1 mL/min/1.73 m^2
same,"Change from baseline eGFR, difference between bardoxolone methyl and placebo, mean ± SE","[2]; Week 24, 150 mg vs placebo",10.5 ± 1.5 mL/min/1.73 m^2
same,"Change from baseline eGFR, mean ± SE","[2]; Week 24, 150 mg",10.6 ± 1.1 mL/min/1.73 m^2
same,patients with more than a 10% increase in estimated GFR,[2]; [5],74%
same,patients with more than a 50% increase in estimated GFR,[2]; [5],24%
same,"Change from baseline eGFR, difference between bardoxolone methyl and placebo, mean ± SE","[2]; Week 24, combined vs placebo",10.0 ± 1.3 mL/min/1.73 m^2
same,time from treatment initiation to observed increases in estimated GFR,[2]; bardoxolone methyl groups,≤ 4 weeks
same,time of peak increase in estimated GFR,"[2]; bardoxolone methyl groups, stable through Week 24",12 Week
same,patients with worsening of CKD stage,[2]; each bardoxolone methyl group (2 patients),4%
